In patent US20220323389A1, “TREATING NON-ALCOHOLIC FATTY LIVER DISEASE AND INFLAMMATORY STEATOHEPATITIS WITH SLC25A1 INHIBITORS” (GEORGETOWN UNIVERSITY, priority 2019, published 2022):

Key:
[1] = tested on: liver of HFD-fed mice; test: Liver steatosis / steatohepatitis histology and serum chemistry in HFD-fed mice (time course); format: in vivo, mouse
Source text: (§1) Cells, reagents, antibodies, primers. CTPI-2 was purchased from Enamine Ltd. (Monmouth Jct, N.J.). The anti-SLC25A1 antibody used in immunoblots was either from Santa Cruz Biotech (Dallas, Tex.), (#sc-86392), employed at 1:1000 dilution, or from Proteintech (15235-1-AP, Rosemont, Ill.), employed at 1:1000 dilution. Mice and diets. For the majority of the experiments (except for experiments harboring genetic alterations of the Slc25a1 gene), DIO C57BL/6J mice were purchased from Jackson Laboratory (Bar Harbor, Me.) between 4-6 weeks of age. Mice were acclimated in the Georgetown University animal facility for at least one week. At the indicated times, mice were randomized to a standard laboratory chow diet (Labdiet #5053, St. Louis, Mo.) or the high fat diet (Researchdiets D12492, New Brunswick, N.J.), with 60% calories derived from fat (lard), and 20% from sucrose. During the course of the experiments, mice were housed at one mouse per cage and food consumption was measured regularly. Animals were maintained in a normal light-cycle and provided with water ad libitum. CTPI-2 treatment. CTPI-2 was administered at 50 mg/kg via intra-peritoneal injection on alternate days. CTPI-2 was diluted either in DMSO (at 0.2% final concentration) using DMSO as vehicle control, or in 0.47% Sodium Bicarbonate (NaCO3) at a final concentration of 14 mM. NaCO3 (0.47%) served as vehicle control. Immunoblot of murine tissues. Frozen tissue samples were homogenized in radioimmunoprecipitation (RIPA) buffer with protease inhibitor cocktails. Protein quantification was done by using a Coomassie (Bradford) Protein Assay Kit (Pierce, Waltham Mass.). Equal amount of protein lysate was loaded and separated by Novex™ 4-20% Tris-Glycine Mini Gel (Invitrogen, Carlsbad, Calif.), then transferred to a PVDF membrane. Appropriate horseradish peroxidase-conjugated secondary antibody (Invitrogen) was applied after incubation with primary antibody. SuperSignal™ West Pico PLUS Chemiluminescent Substrate (Thermo Fisher Scientific, Waltham, Mass.) was used for protein detection. SLC25a1 strains. The original Slc25a1 tm1a strain was purchased from the Mutant Mouse Resource and Research Center (MMRRC, Chapel Hill, N.C.) (C57BL/6N-Slc25a1^tm1a(EUCOMM)Wtsi, RRID: MMRRC_042258-UCD). The Tg(Alb-cre)21M (Alb-Cre) mice were purchased from Jackson Laboratory (#003574). Slc25a1^+/−, Slc25a1^fl/fl and Alb/Cre mice were genotyped by conventional PCR with genomic DNA extracted from the mouse tail biopsies. Agarose gel electrophoresis was used for analysis of PCR product analysis. The PCR conditions used were as follows: 95° C. for 4 minutes, followed by 40 cycles (95° C. for 30 seconds, 65° C. for 30 seconds, and 72° C. for 50 seconds), 72° C. for 2 min then kept in 4° C. before used. Histological Analysis. Assessment of steatosis was performed on paraffin embedded H&E stained sections derived from 3-6 animals and on multiple images for each animal. The steatosis grade was scored according to the degree of liver involvement with 0, <5%; 1, 5% to 33%; 2, 33% to 50%; and 3, >50%. Alternatively, the percentage of steatosis per area was calculated with ImageJ program. Lypidomic analysis. Targeted quantitation of triglycerides was performed using multiple reaction monitoring mass spectrometry. The samples were resolved on an CORTECS T3 2.7 μm, 2.1×30 mm column online with a triple quadrupole mass spectrometer (Xevo-TQ-S, Waters Corporation, Milford, Mass.) operating in the multiple reaction monitoring (MRM) mode. Signal intensities from all MRM Q1/Q3 ion pairs for triglycerides were ranked to ensure selection of the most intense precursor and fragment ion pair for MRM-based quantitation. […] The LC and MRM method used here for the study was developed by Waters Corporation. The metabolite ratios were calculated by normalizing the peak area of endogenous metabolites within tissue samples normalized to the internal standard. Processed data was normalized with respect to tissue weight taken for analysis. […]

[2] = tested on: HepG2 cells; test: mRNA levels (RT-qPCR) in tissue culture cells treated with CTPI-2 with or without citrate; format: cell-based
Protocol: FIGS. 6 A-B show citrate and Ac-CoA levels derived from liver extracts of HFD-vehicle (light) or HFD+CTPI-2 (dark). FIGS. 6C-D show levels of the indicated triacylglycerides (TAG, (FIG. 6C)) and total fatty acids (FA, panel D) detected with the Lipidyzer platform. N=2-3 mice per group. FIG. 6E-F show levels of the indicated metabolites detected with targeted LC-MS analysis. […] The indicated mRNA levels were analyzed with RT-qPCR. H. Model summarizing findings as explained in the Examples. Bars indicate Standard Deviations. *p≤0.05, **p≤0.01, ***p≤0.001.
To corroborate the direct effect of CTPI-2 and of citrate in the regulation of the genes identified by our analysis, the effects of the drug and of citrate supplementation in tissue culture cells were explored.

[3] = tested on: liver gene expression program induced by the HFD; test: RNAseq, RT-qPCR and immunoblot of liver (and WAT) of HFD-fed mice; format: in vivo, mouse
Source text: as §1

[4] = target: SLC25A1 (Homo sapiens, UniProt P53007); conditions: previous studies performed in vitro (Fernandez et al.); cited from earlier work
Chain of SLC25A1 (Homo sapiens, UniProt P53007) (P53007 14-311, species assumed): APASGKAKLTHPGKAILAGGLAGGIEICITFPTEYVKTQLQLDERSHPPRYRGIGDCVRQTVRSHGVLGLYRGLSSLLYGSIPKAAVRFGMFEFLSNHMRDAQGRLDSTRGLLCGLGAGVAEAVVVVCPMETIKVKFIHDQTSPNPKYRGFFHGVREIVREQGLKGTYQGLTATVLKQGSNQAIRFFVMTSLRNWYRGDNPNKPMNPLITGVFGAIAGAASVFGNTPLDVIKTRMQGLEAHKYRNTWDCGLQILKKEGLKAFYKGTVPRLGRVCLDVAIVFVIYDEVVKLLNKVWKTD

[5] = tested on: SLC25A1; test: Immunoblot of SLC25A1 protein in tissues of HFD-fed mice; format: in vivo, mouse
Source text: (§2) Cells, reagents, antibodies, primers. CTPI-2 was purchased from Enamine Ltd. (Monmouth Jct, N.J.). The anti-SLC25A1 antibody used in immunoblots was either from Santa Cruz Biotech (Dallas, Tex.), (#sc-86392), employed at 1:1000 dilution, or from Proteintech (15235-1-AP, Rosemont, Ill.), employed at 1:1000 dilution. Mice and diets. For the majority of the experiments (except for experiments harboring genetic alterations of the Slc25a1 gene), DIO C57BL/6J mice were purchased from Jackson Laboratory (Bar Harbor, Me.) between 4-6 weeks of age. Mice were acclimated in the Georgetown University animal facility for at least one week. At the indicated times, mice were randomized to a standard laboratory chow diet (Labdiet #5053, St. Louis, Mo.) or the high fat diet (Researchdiets D12492, New Brunswick, N.J.), with 60% calories derived from fat (lard), and 20% from sucrose. During the course of the experiments, mice were housed at one mouse per cage and food consumption was measured regularly. Animals were maintained in a normal light-cycle and provided with water ad libitum. CTPI-2 treatment. CTPI-2 was administered at 50 mg/kg via intra-peritoneal injection on alternate days. […] Protein quantification was done by using a Coomassie (Bradford) Protein Assay Kit (Pierce, Waltham Mass.). […] The steatosis grade was scored according to the degree of liver involvement with 0, <5%; 1, 5% to 33%; 2, 33% to 50%; and 3, >50%. Alternatively, the percentage of steatosis per area was calculated with ImageJ program. […] Targeted quantitation of triglycerides was performed using multiple reaction monitoring mass spectrometry. […] Signal intensities from all MRM Q1/Q3 ion pairs for triglycerides were ranked to ensure selection of the most intense precursor and fragment ion pair for MRM-based quantitation. […] The metabolite ratios were calculated by normalizing the peak area of endogenous metabolites within tissue samples normalized to the internal standard. […]

[6] = tested on: HFD-fed mice; test: Glucose homeostasis in HFD-fed mice (fasting glucose, GTT, ITT); format: in vivo, mouse
Source text: as §2

[7] = tested on: C57Bl/6J mice fed with the HFD; test: Diet-Induced-Obesity (DIO) model: body weight, fat and organ weights of HFD-fed mice; format: in vivo
Source text: as §1

[8] = liver, 4 weeks of CTPI-2 treatment
[9] = liver, normalized to HFD-vehicle
[10] = time course of CTPI-2 treatment
[11] = HFD-fed mice, CTPI-2 50 mg/kg i.p. alternate days

Which results are given for `O=C(O)c1ccccc1NS(=O)(=O)c1ccc(Cl)c([N+](=O)[O-])c1` [CTPI-2]?
evolution to steatohepatitis ([1]; HFD-fed mice, CTPI-2 started after 3 months HFD): prevented the evolution to steatohepatitis; liver steatosis ([1]; HFD-fed mice, CTPI-2 started after 3 months HFD, 4, 8, 12 weeks treatment): nearly completely reversed liver steatosis; liver histology compared with normal-diet animals ([1]; after 3 months of CTPI-2 and 6 months on the HFD, most treated mice): nearly indistinguishable from those of animals fed a normal diet; early stages of steatosis ([1]; steatosis present after 3 months HFD when CTPI-2 started): reverted these early stages of steatosis; effect of citrate supplementation on CTPI-2 gene inhibition (FASN, ACACA, AldoA, Aldo/B) ([2]; 5 mM sodium citrate): completely rescued by citrate; expression of FA synthesis genes FASN and ACACA ([2]; CTPI-2 5-12 hours): inhibited; expression of glycolytic/gluconeogenesis genes AldoA and Aldo/B ([2]; CTPI-2 5-12 hours): inhibited; bile acid biosynthetic pathway (RNAseq) ([3]; liver): inhibits bile acid biosynthetic pathway; protein levels matching the gene expression pattern (immunoblot) ([3]; liver and adipose tissue): concordantly paralleled by changes in the protein levels; cluster of genes involved in NAFLD (RNAseq) [3, 8]: down-regulated; gene expression program induced by the HFD (RNAseq) [3, 8]: essentially reverted the gene expression program induced by the HFD; levels of PPARγ ([3]; liver, RT-qPCR): unchanged; PPARγ and downstream target genes CEBPα1, CEBPα2 and GLUT4 (RT-qPCR) [3, 9]: down-regulated; master lipogenetic genes SREBP1, FASN and ACACA (RT-qPCR) [3, 9]: suppression; genes/pathways of carbon and pyruvate metabolism, glycolysis and gluconeogenic genes (RNAseq) ([3]; liver, Fbp1, PC, PCK1/2, G6PC, G6PC3, AldoA/B, PFKL/P, PGK1, PKLR): repressed; SLC25A1 expression levels in vitro [4]: did not affect the expression levels of this protein; mitochondrial citrate transport activity [4]: interfered with the mitochondrial citrate transport activity; SLC25A1 expression levels in the adipose tissue [5]: reduced SLC25A1 expression levels; SLC25A1 expression levels in the liver [5]: reduced SLC25A1 expression levels; SLC25A1 expression levels in the pancreas [5]: not in the pancreas; basal fasting glucose levels ([6]; CTPI-2 50 mg/kg i.p. alternate days): reduced the basal fasting glucose levels; glucose tolerance test (GTT) [6, 10]: complete time-dependent normalization; insulin tolerance test (ITT) [6, 10]: complete time-dependent normalization; feeding behavior (daily food consumption) ([7]; C57BL/6J mice, CTPI-2 50 mg/kg i.p. on alternate days): did not modify feeding behavior; body weight gain ([7]; HFD 6 months, CTPI-2 50 mg/kg i.p. alternate days, started after 12 weeks of HFD): largely prevented such weight gain; WAT (visceral abdominal fat), also by MRI [7, 11]: reducing the WAT; WAT weight (mass) [7, 11]: reducing their mass; liver weight (mass) [7, 11]: reducing their mass; pale, enlarged liver phenotype (visual examination) [7, 11]: completely reverted this phenotype
